Laboratory results from BindingDB's records for patent US8748618 (University of Virginia Patent Foundation, 2014).

Molecular target: T1, Core-binding factor subunit beta (Homo sapiens, UniProt Q13951)
T1 sequence (Q13951 whole entry): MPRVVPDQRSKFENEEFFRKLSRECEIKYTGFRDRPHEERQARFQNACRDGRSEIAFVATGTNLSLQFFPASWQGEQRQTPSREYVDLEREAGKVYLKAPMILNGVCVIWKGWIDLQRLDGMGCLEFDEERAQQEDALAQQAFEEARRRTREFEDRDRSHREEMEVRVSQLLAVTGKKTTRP
Assay: FRET Assay
Description: We have developed effective assays to monitor the inhibition of CBFβ-SMMHC binding to the Runt domain (as well as for CBFβ binding to the Runt domain). […] The ratio of the emission intensities at 525 nm and 474 nm, measured after excitation at 433 nm, was used as the readout in this assay.

Structure (SMILES) | IC50
Cc1ccc2[nH]c(-c3ccccn3)nc2c1 [US8748618, LD-2-11] | 2900 nM
Clc1ccc2nc(-c3ccccn3)[nH]c2c1 [US8748618, LD-2-79] | 2300 nM
CCOc1ccc2[nH]c(-c3ccccn3)nc2c1 [US8748618, LD-1-29 (or) AI-10-54] | 1500 nM
CCOc1cccc2[nH]c(-c3ccccn3)nc12 [US8748618, AI-4-42] | 4200 nM
FC(F)(F)c1ccc2[nH]c(-c3ccccn3)nc2c1 [US8748618, LD-2-23] | 1100 nM
Fc1ccc2[nH]c(-c3ccccn3)nc2c1 [US8748618, LD-1-31] | 2500 nM
Fc1cc2nc(-c3ccccn3)[nH]c2cc1F [US8748618, LD-1-33] | 2500 nM
CC(C)Oc1ccc2[nH]c(-c3ccccn3)nc2c1 [US8748618, AI-4-70 (or) LD-2-21] | 1400 nM
Cc1cc2nc(-c3ccccn3)[nH]c2cc1C [US8748618, LD-1-37] | 2000 nM
Fc1cc2[nH]c(-c3ccccn3)nc2c(F)c1F [US8748618, AI-4-43] | 1400 nM
Cc1cccc2[nH]c(-c3ccccn3)nc12 [US8748618, AI-4-46] | 5300 nM
Cc1ccc2[nH]c(-c3ccccn3)nc2c1C [US8748618, LD-1-23] | 4300 nM

The remaining lines, values ahead:

IC50 | Structure (SMILES)
5500 nM | COc1cccc2[nH]c(-c3ccccn3)nc12 [US8748618, AI-4-52]
2500 nM | Oc1ccc2nc(-c3ccccn3)[nH]c2c1 [US8748618, AI-10-61]
1000 nM | c1ccc(-c2nc3ccc(N4CCOCC4)cc3[nH]2)nc1 [US8748618, AI-10-3]
760 nM | FC(F)(F)c1cc(Cl)c2[nH]c(-c3ccccn3)nc2c1 [US8748618, AI-4-48]
700 nM | Clc1cc(Cl)c2nc(-c3ccccn3)[nH]c2c1 [US8748618, AI-4-49]
22000 nM | Fc1cccnc1-c1nc2ccc(OC(F)(F)F)cc2[nH]1 [US8748618, AI-10-65]
3400 nM | c1ccc(-c2nc3cc(-n4ccnc4)ccc3[nH]2)nc1 [US8748618, AI-10-88]
2300 nM | COCCOc1ccc(-c2nc3ccc(OC(F)(F)F)cc3[nH]2)nc1 [US8748618, AI-10-87]
1000 nM | FC(F)(F)Oc1ccc2[nH]c(-c3ccccn3)nc2c1 [US8748618, AI-10-47]
3300 nM | CS(=O)(=O)c1ccc2nc(-c3ccccn3)[nH]c2c1 [US8748618, AI-10-37]
